What was measured:
[1] = target: Tyrosine-protein kinase Lck (Homo sapiens, UniProt P06239); test: Inhibition of LCK
[2] = target: Mitogen-activated protein kinase 14 (Homo sapiens, UniProt Q16539); test: Inhibition of p38alpha
Blood = test: Inhibition of TNFalpha-induced IL1-beta production in human whole blood after 2 to 5 hrs by ELISA; format: functional, tissue-based

Chain of Tyrosine-protein kinase Lck (P06239 whole entry): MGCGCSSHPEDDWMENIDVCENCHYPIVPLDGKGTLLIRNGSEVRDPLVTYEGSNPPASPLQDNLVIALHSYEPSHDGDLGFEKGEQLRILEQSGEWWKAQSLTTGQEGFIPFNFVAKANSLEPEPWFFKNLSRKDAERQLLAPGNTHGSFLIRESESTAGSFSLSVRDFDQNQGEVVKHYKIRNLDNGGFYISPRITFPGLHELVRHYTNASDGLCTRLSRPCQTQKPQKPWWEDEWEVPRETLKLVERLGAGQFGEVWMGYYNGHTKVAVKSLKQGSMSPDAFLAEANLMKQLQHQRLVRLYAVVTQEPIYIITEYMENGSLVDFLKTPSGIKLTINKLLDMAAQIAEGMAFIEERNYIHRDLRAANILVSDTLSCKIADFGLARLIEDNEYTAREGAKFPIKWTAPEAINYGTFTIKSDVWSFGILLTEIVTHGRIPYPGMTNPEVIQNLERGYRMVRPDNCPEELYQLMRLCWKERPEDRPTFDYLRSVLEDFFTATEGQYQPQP
Chain of Mitogen-activated protein kinase 14 (Q16539 whole entry): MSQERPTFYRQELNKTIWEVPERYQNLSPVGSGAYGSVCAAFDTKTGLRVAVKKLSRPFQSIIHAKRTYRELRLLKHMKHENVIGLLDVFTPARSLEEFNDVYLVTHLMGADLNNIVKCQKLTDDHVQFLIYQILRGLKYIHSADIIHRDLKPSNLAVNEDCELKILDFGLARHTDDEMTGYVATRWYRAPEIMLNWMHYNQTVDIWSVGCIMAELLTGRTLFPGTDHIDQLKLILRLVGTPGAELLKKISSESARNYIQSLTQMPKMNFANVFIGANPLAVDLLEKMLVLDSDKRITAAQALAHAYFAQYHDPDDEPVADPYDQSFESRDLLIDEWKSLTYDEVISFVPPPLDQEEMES

CCN(CC)CCOc1ccc(Nc2ncc3c(n2)N(C)C(=O)N(c2c(Cl)cccc2Cl)C3)cc1
Kd [1]: 0.2 nM
Kd [2]: 10 nM

O=C1Nc2nc(N[C@H]3CC[C@H](O)CC3)ncc2CN1c1ccccc1Cl
Kd [1]: > 20000 nM
Kd [2]: 32 nM

Cn1c(=O)c(-c2ccccc2Cl)cc2cnc(NC3CCOCC3)nc21
Kd [1]: 1800 nM
IC50 (Blood): 85.7 nM

From ChEMBL document CHEMBL1764984 (J Med Chem, 2011)
